Test results reported in patent US4962224A, “N-naphthoylglycines as aldose reductase inhibitors” (American Home Products Corporation, priority 1989, dated 1990).
Several values for one entry are separate records, joined by “and”; a condition that tells them apart may be missing. Equal entries are not always repeated.

Experiments:
aldose reductase = target: T1, aldose reductase (Bos taurus, UniProt P16116); test: aldose reductase inhibiting effects in vitro (Table I, IN VITRO); format: biochemical, bovine (lens); conditions: read-out: % Inhibition IN VITRO
T1 construct: preparation of the enzyme from bovine lens; from tissue; host or cells: bovine lens
Excerpt: In the present case the procedure of Hayman and Kinoshita was modified in that the final chromatography step was omitted in the preparation of the enzyme from bovine lens. The results are tabulated in Table I under the heading IN VITRO.

[1] = tested on: Sciatic Nerve Polyol Accumulation; test: Two-Week Streptozocin - Diabetic Rat Model, lowering of sciatic nerve polyol accumulation; format: in vivo, rat (Sprague-Dawley); conditions: gavage, 14 days, STZ diabetic rats
Excerpt: A second in vivo model examined the effect of the compounds of the present invention on sorbitol accumulation in the tissues of 14-day streptozocin (STZ) (Upjohn) diabetic rats.
In each of the studies male Sprague-Dawley rats from Charles River Labs, Kingston, N.Y., weighing 200 to 250 g, were used. The animals were weighed and observed for 5 days prior to the start of the study.
In each study the rats were randomly assigned by weight into groups of 15 animals except for group I which contained 8 animals. The groups were treated as follows:
Group II: STZ, 110 mg/kg i.p.
Group IV: STZ, 110 mg/kg i.p. followed by various doses of a compound of the present invention given by gavage for 14 days, beginning on the day of induction of diabetes.
Following an overnight fast (water ad lib) the animals in groups II-IV were given by i.p. injection 110 mg STZ per kg body weight. The STZ was dissolved in cold citric acid, 0.03M, pH 4.5 and injected within 5 minutes of being dissolved. Control rats (group I) were injected with buffer only.
Two days after STZ injection plasma glucose levels (from the tail vein) were determined following a 4 hour fast. Excluded from the study were animals whose plasma glucose was below 300 mg/dl.
On the morning of the 14th day following STZ injection the animals were fasted 4 hours prior to sacrificing by decapitation. The blood was collected into heparin containing tubes and placed on ice. Both lenses and sciatic nerves were removed immediately, weighed, frozen, and stored at -20° C. until analyzed for sorbitol. The RBCs were collected by centrifugation, the plasma was removed and the cells were washed once with 10 volumes of cold saline. The washed packed RBCs were divided into 1 mL aliquots, extracted with cold perchloric acid and the acid extracts were stored at -20° C. until analyzed for sorbitol.

dulcitol accumulation = test: lowering of dulcitol (galactitol) accumulation in tissues of galactosemic rats (Table I, IN VIVO); parameters: species or system rat (Sprague-Dawley); conditions: for % Lowering dulcitol accumulation IN VIVO, D: diaphragm; for % Lowering dulcitol accumulation IN VIVO, D / % Lowering dulcitol accumulation IN VIVO, L: galactosemic rats, 4 days; for % Lowering dulcitol accumulation IN VIVO, L: lens
Excerpt: Such experiments are exemplified hereinbelow after the listing of the following general comments pertaining to these experiments:
(a) Four or more groups of six male rats, […], Sprague-Dawley strain, were used. The first group, the control group, was fed a mixture of laboratory chow (rodent Laboratory Chow, Purina) and […] at 20% (w/w %) concentration. […] The test compound was either admixed to the diet or administered by gavage. In experiments involving compound administration in the diet, the average dose administered was calculated from the actual food intake of the animals in each group. The concentration of galactose in the diet of the treated groups was the same as that for the untreated galactosemic group.
(b) After four days, the animals were killed by decapitation. The eyeballs were removed and punctured with a razor blade; the freed lenses were rolled gently on filter paper and weighed. The sciatic nerves were dissected as completely as possible and weighed. Both tissues when frozen can be kept up to two weeks before being analyzed for galactitol.
Only two minor reagent changes were made: (a) the rinsing mixture was an aqueous 5% (w/v) trichloroacetic acid solution and (b) the stock solution was prepared by dissolving 25 mg of dulcitol in 100 mL of an aqueous trichloroacetic acid solution. [N.B.: For each experiment the average value found in the tissue from rats fed the glucose diet was subtracted from the individual values found in the corresponding tissue in galactose-fed rats to obtain the amount of polyol accumulated.]
The figures under L, N, and D represent the percentage decrease of galactitol accumulation in the tissues of the lens, sciatic nerve, and diaphragm, respectively, for treated rats as compared to untreated rats.

`COc1ccc2c(C(=O)N(C)CC(N)=O)c(F)ccc2c1C(F)(F)F` [Example 1, N-[(Aminocarbonyl)methyl]-2-fluoro-6-methoxy-N-methyl-5-(trifluoromethyl)-1-naphthalenecarboxamide] was tested, and the inhibition at 10 µM (aldose reductase; 10^-5 M) was 1%, the inhibition at 1 µM (aldose reductase; 10^-6 M) was 0% and the “% Lowering of Sciatic Nerve Polyol Accumulation, Fructose” value (shortened to “% Lowering … Fructose”) ([1]; 3 mg/kg) was 69%. The “% Lowering of Sciatic Nerve Polyol Accumulation, Sorbital” value (“% Lowering … Sorbital” below) ([1]; 3 mg/kg) was 50%, the “% Lowering … Fructose” value ([1]; 6 mg/kg) was 87% and the “% Lowering … Sorbital” value ([1]; 6 mg/kg) was 77%. For the same compound, the “% Lowering … Fructose” value ([1]; 9 mg/kg) was 94%, the “% Lowering … Sorbital” value ([1]; 9 mg/kg) was 79% and the “% Lowering … Fructose” value ([1]; 12 mg/kg) was 98%. The “% Lowering … Sorbital” value ([1]; 12 mg/kg) was 78%, the “% Lowering … Fructose” value ([1]; 20 mg/kg) was 105% and the “% Lowering … Sorbital” value ([1]; 20 mg/kg) was 84%. The “results in the sciatic nerve compared with tolrestat” value (dulcitol accumulation; 10 mg/kg/day versus tolrestat at 9 mg/kg/day, sciatic nerve) was “comparable results”, the “% Lowering dulcitol accumulation IN VIVO, D” value (dulcitol accumulation; 5 mg/kg) was 32% and the “% Lowering dulcitol accumulation IN VIVO, D” value (dulcitol accumulation; 10 mg/kg) was 53% and 58%. The “% Lowering dulcitol accumulation IN VIVO, D” value (dulcitol accumulation; 12 mg/kg) was 52%, the “% Lowering dulcitol accumulation IN VIVO, D” value (dulcitol accumulation; 14 mg/kg) was 62% and the “% Lowering dulcitol accumulation IN VIVO, D” value (dulcitol accumulation; 15 mg/kg) was 57%. For the same compound, the “% Lowering dulcitol accumulation IN VIVO, D” value (dulcitol accumulation; 19 mg/kg) was 63%, the “% Lowering dulcitol accumulation IN VIVO, D” value (dulcitol accumulation; 24 mg/kg) was 75% and the “% Lowering dulcitol accumulation IN VIVO, L” value (dulcitol accumulation; 5 mg/kg) was “N.S”. The “% Lowering dulcitol accumulation IN VIVO, L” value (dulcitol accumulation; 10 mg/kg) was “N.S”, the “% Lowering dulcitol accumulation IN VIVO, L” value (dulcitol accumulation; 12 mg/kg) was “N.S” and the “% Lowering dulcitol accumulation IN VIVO, L” value (dulcitol accumulation; 14 mg/kg) was “N.S”. For the same compound, the “% Lowering dulcitol accumulation IN VIVO, L” value (dulcitol accumulation; 15 mg/kg) was “N.S”, the “% Lowering dulcitol accumulation IN VIVO, L” value (dulcitol accumulation; 19 mg/kg) was “N.S” and the “% Lowering dulcitol accumulation IN VIVO, L” value (dulcitol accumulation; 24 mg/kg) was “N.S”.
In the case of `COc1ccc2c(C(=S)N(C)CC(=O)O)cccc2c1C(F)(F)F` [tolrestat, N-[[6-methoxy-5-(trifluoromethyl)-1-naphthalenyl]thioxomethyl]-N-methylglycine, reference compound], the “% Lowering … Fructose” value ([1]; 6 mg/kg) is reported as 58%, the “% Lowering … Sorbital” value ([1]; 6 mg/kg) is reported as 53% and the “% Lowering dulcitol accumulation IN VIVO, L” value (dulcitol accumulation; 9 mg/kg) is reported as “N.S”.
